Where two headings read alike, the source gives them in different places.
What was measured:
neutrophil elastase = test system: neutrophil elastase; set-up: method as in PMID 29484635; conditions: cited from earlier work
[1] = set-up: method as in unpublished data; conditions: healthy adults; ref unpublished data; cited from earlier work
[2] = Phase 1 part B: PK of single 40 mg oral dose, fasted vs fed (food effect); assay type: in vivo, human; conditions: for AUC(0-inf) / AUC(0-t) / Cmax / half-life / Tmax: human, plasma
Protocol: Participants were admitted to the clinical unit the day before doses were administered on days 1 and 8 and discharged on days 2 and 9, after collection of the 36‐hour postdose PK sample. The washout period between doses was 7 days. […] After dosing, participants were required to remain upright for at least 2 hours and refrain from food and drink for at least 4 hours; water was allowed after 2 hours.
For part B, blood sampling for PK assessments was performed following single‐dose administration on days 1 and 8 at 0 (predose), 0.25, 0.5, 1, 1.5, 2, 3, 3.5, 4, 6, 8, 10, 12, 24, 36, and 72 hours after dosing. PK parameters included Cmax, tmax, AUClast, AUC∞, CL/F, apparent volume of distribution after drug administration, and t1/2.
The assay range was 0.250 to 150 ng/mL, with overall precision and accuracy for intra‐ and interassays of 2.2% to 5.9% and −2.7% to 0.3%, respectively.
PK parameters were generated using noncompartmental analysis and were based on the PK population, which included all participants who received at least 1 dose of assigned treatment (safety population) and had evaluable Cmax and AUC parameters without significant protocol deviations. For part B, the PK population included participants who completed both treatment periods and had sufficient concentration data from both periods to fully derive the PK parameters.
Estimates and 90% CIs for the differences between treatment means were computed and converted to ratios by antilog transformation. Results for the geometric mean ratio of treatments (fasted vs fed) were tabulated for Cmax, AUClast, and AUC∞.

[3] = oral, 40 mg, Japanese n=9, fasted, least squares mean
[4] = oral, 40 mg, Japanese n=9, fed, least squares mean
[5] = oral, 40 mg, White n=10, fasted, least squares mean
[6] = oral, 40 mg, White n=10, fed, least squares mean
[7] = po, 40 mg, 40 mg single oral dose, Japanese, fasted, mean (CV%)
[8] = po, 40 mg, 40 mg single oral dose, Japanese, fed, mean (CV%)
[9] = po, 40 mg, 40 mg single oral dose, White, fasted, mean (CV%)
[10] = po, 40 mg, 40 mg single oral dose, White, fed, mean (CV%)
[11] = po, 40 mg, 40 mg single oral, fasted, Japanese
[12] = po, 40 mg, 40 mg single oral, fasted, White

Cn1c(=O)oc2ccc(-c3ccc(C[C@@H](C#N)NC(=O)[C@@H]4CNCCCO4)cc3)cc21 [Brensocatib]
inhibition of the activity of neutrophil elastase in blood (neutrophil elastase): exposure‐dependent | excreted in urine as unchanged [1]: ≈ 20% | effect of food on exposure ([2]; 40 mg): no effect | CL/F ([2]; 40 mg single oral, fasted, Japanese): 7.7 L/h | CL/F ([2]; 40 mg single oral, fasted, White): 6.5 L/h | AUClast GMR (fed/fasted), % (90% CI) ([2]; 40 mg, Japanese n=9): 98.4 (94.4‐102.5) % | AUC∞ GMR (fed/fasted), % (90% CI) ([2]; 40 mg, Japanese n=9): 99.2 (95.7‐102.8) % | Cmax GMR (fed/fasted), % (90% CI) ([2]; 40 mg, Japanese n=9): 82.4 (67.9‐99.9) % | Cmax lower in the fed state ([2]; 40 mg, Japanese participants): 17.6% | AUClast GMR (fed/fasted), % (90% CI) ([2]; 40 mg, White n=10): 101.3 (96.8‐106.0) % | AUC∞ GMR (fed/fasted), % (90% CI) ([2]; 40 mg, White n=10): 99.6 (94.6‐104.9) % | Cmax GMR (fed/fasted), % (90% CI) ([2]; 40 mg, White n=10): 101.2 (81.4‐125.9) % | AUC(0-inf) [2, 3]: 5270 ng·h/mL | AUC(0-t) [2, 3]: 4920 ng·h/mL | Cmax [2, 3]: 356 ng/mL | AUC(0-inf) [2, 4]: 5230 ng·h/mL | AUC(0-t) [2, 4]: 4840 ng·h/mL | Cmax [2, 4]: 293 ng/mL | AUC(0-inf) [2, 5]: 6200 ng·h/mL | AUC(0-t) [2, 5]: 5150 ng·h/mL | Cmax [2, 5]: 269 ng/mL | AUC(0-inf) [2, 6]: 6180 ng·h/mL | AUC(0-t) [2, 6]: 5210 ng·h/mL | Cmax [2, 6]: 272 ng/mL | half-life ([2]; oral, 40 mg, fasted and fed, White, read-out: Mean t1/2 (converted)): 27 to 28 h | Tmax ([2]; oral, 40 mg, fasted, Japanese, read-out: median Tmax): 1.3 h | Tmax ([2]; oral, 40 mg, fasted, White, read-out: median Tmax): 1.3 h | half-life ([2]; oral, 40 mg, fed, Japanese, read-out: Mean t1/2 (converted)): 18.4 h | Tmax ([2]; oral, 40 mg, fed, Japanese, read-out: median Tmax): 3 h | Tmax ([2]; oral, 40 mg, fed, White, read-out: median Tmax): 2 h | AUC(0-inf) [2, 7]: 5470 ng·h/mL | AUC(0-t) [2, 7]: 5010 ng·h/mL | Cmax [2, 7]: 352 ng/mL | half-life ([2]; po, 40 mg, 40 mg single oral dose, Japanese, fasted, mean (CV%), read-out: t1/2 (converted)): 19.3 h | Tmax ([2]; po, 40 mg, 40 mg single oral dose, Japanese, fasted, median (range), read-out: Tmax): 1.27 h | AUC(0-inf) [2, 8]: 5490 ng·h/mL | AUC(0-t) [2, 8]: 4980 ng·h/mL | Cmax [2, 8]: 297 ng/mL | half-life ([2]; po, 40 mg, 40 mg single oral dose, Japanese, fed, mean (CV%), read-out: t1/2 (converted)): 19.4 h | Tmax ([2]; po, 40 mg, 40 mg single oral dose, Japanese, fed, median (range), read-out: Tmax): 3 h | AUC(0-inf) [2, 9]: 6680 ng·h/mL | AUC(0-t) [2, 9]: 5480 ng·h/mL | Cmax [2, 9]: 301 ng/mL | half-life ([2]; po, 40 mg, 40 mg single oral dose, White, fasted, mean (CV%), read-out: t1/2 (converted)): 28.9 h | Tmax ([2]; po, 40 mg, 40 mg single oral dose, White, fasted, median (range), read-out: Tmax): 1.25 h | AUC(0-inf) [2, 10]: 6500 ng·h/mL | AUC(0-t) [2, 10]: 5470 ng·h/mL | Cmax [2, 10]: 302 ng/mL | half-life ([2]; po, 40 mg, 40 mg single oral dose, White, fed, mean (CV%), read-out: t1/2 (converted)): 27.5 h | Tmax ([2]; po, 40 mg, 40 mg single oral dose, White, fed, median (range), read-out: Tmax): 2 h | AUC(0-inf) [2, 11]: 5180 ng·h/mL | AUC(0-t) [2, 11]: 4820 ng·h/mL | Cmax [2, 11]: 338 ng/mL | half-life ([2]; po, 40 mg, 40 mg single oral, fasted, Japanese, read-out: Elimination t1/2 (converted)): 18.7 h | AUC(0-inf) [2, 12]: 6200 ng·h/mL | AUC(0-t) [2, 12]: 5150 ng·h/mL | Cmax [2, 12]: 269 ng/mL | half-life ([2]; po, 40 mg, 40 mg single oral, fasted, White, read-out: Elimination t1/2 (converted)): 28 h | Tmax ([2]; po, 40 mg, 40 mg single oral, fasted, both Japanese and White participants, read-out: Tmax): 1.3 h

Source: publication PMC9322451 (Clinical Pharmacology in Drug Development, 2022)
